Structures can show the parent of a compound that is named as a salt. *1 amine or outer side, *2 acyl side, *3 side chain or, on linkers, in order; H or OH if unused. Where a SMILES comes first, the peptide text is derived from it. Bridges are numbered along the chain shown (N, C = ends). [ ]: non-standard residue; d: D form. The star is where a group is joined. ξ: configuration not given here. GABA(4S-Me) = C[C@@H](CCC(=O)[*:2])N[*:1]; ξHexahydromandeloyl = O=C(C(O)C1CCCCC1)*; X8 = O=C([C@H]1CC[C@H](O)CC1)*; Thr(3ξ) = CC(O)[C@H](N)C(=O)O; Propanoyl(3-OH) = O=C(CCO)*; X10 = O=C(CC[C@@H]1CCCN1)*; X5 = CC(C)[C@H](N)CCC(=O)*; Octanoyl = CCCCCCCC(=O)*; Dab = NCC[C@H](N)C(=O)O; X11 = CC(C)(N)CCC(=O)*; X6 = O=C(CCCCCCCO)*

Experiment in all cases: MIC susceptibility testing, broth microdilution in CaMHB
(Dilution methods test growth across graded concentrations, often in twofold steps.)

The subject of one assay is P. aeruginosa ATCC10145. The class given is cell-based, Pseudomonas aeruginosa. The procedure: (§1) To evaluate the potency and spectrum of the compounds, susceptibility testing was performed against four strains of each of the four Gram negative pathogens, Escherichia coli, Pseudomonas aeruginosa, Klebsiella pneumoniae and Acinetobacter baumannii.
(§2) The day before testing, 3 to 4 colonies were picked from fresh Mueller-Hinton Agar (MHA) plate and transferred into 10 mL of Cation adjusted MHB (CaMHB). Cultures were incubated at 37° C. 250 rpm for 18-20 hours before being diluted 100-fold in fresh CaMHB. The subcultures were grown further until the OD600 reached 0.2-0.3 corresponding to […]. The actively growing cultures were diluted 100-fold in fresh medium and used for the inoculum.
(§3) The assays were performed in duplicate.
(§4) Data was obtained under similar conditions to Table 4 except that different batches of cation-adjusted Muller-Hinton broth were used. The MIC values for these compounds are compared with those values obtained for Polymyxin B, Colistin Sulphate, CB-182,804 and NAB739 (as the TFA salt). CB-182,804 is a polymyxin decapeptide derivative with an aryl urea substituent at the N-terminus, which has been claimed to have lower toxicity than Polymyxin B (compound 5 in WO 2010/075416. See page 37). NAB739 has been described previously by Vaara et al.

In assay [1] the test system is P. aeruginosa ATCCCRM-9027. Type of assay: cell-based, Pseudomonas aeruginosa. On the procedure:
as §1, §2, §3, §4

For another assay, the system named is P. aeruginosa ATCC27853. Type of assay: cell-based, Pseudomonas aeruginosa. The procedure: as §1, §2, §3, §4
The subject of the next assay is A. baumannii NCTC7844. The class given is cell-based, Acinetobacter baumannii. On the procedure: as §1, §2, §3, §4
The test system of the next assay is E. coli ATCC700928. The class given is cell-based, Escherichia coli. The procedure:
as §1, §2, §3, §4

For the next assay, the system named is E. coli ATCC25922. The class given is cell-based, Escherichia coli. On the procedure:
as §1, §2, §3, §4

Another assay deals with E. coli NCTC9001. Type of assay: cell-based, Escherichia coli. The procedure: as §1, §2, §3, §4
The subject of a further assay is K. pneumoniae NCTC7427. The class given is cell-based, Klebsiella pneumoniae. On the procedure:
as §1, §2, §3, §4

The next assay concerns A. baumannii ATCC19606. The class given is cell-based, Acinetobacter baumannii. The following applies: Table 4A, different batches of cation-adjusted Muller-Hinton broth. The procedure: as §1, §2, §3, §4
In a further assay the test system is K. pneumoniae ATCC 4352. Type of assay: cell-based, Klebsiella pneumoniae. The following applies: K. pneumoniae ATCC4352; Table 4A, different batches of cation-adjusted Muller-Hinton broth. The procedure:
as §1, §2, §3, §4

Another assay has as its system P. aeruginosa ATCC 9721. The class given is cell-based, Pseudomonas aeruginosa. The following applies: P. aeruginosa ATCC9721; Table 4A, different batches of cation-adjusted Muller-Hinton broth. The procedure: as §1, §2, §3, §4
The test system of a further assay is A. baumannii ATCCBAA-747. Type of assay: cell-based, Acinetobacter baumannii. The following applies: Table 4A, different batches of cation-adjusted Muller-Hinton broth. On the procedure:
as §1, §2, §3, §4

For a further assay, the system named is A. baumannii NCTC13423. Type of assay: cell-based, Acinetobacter baumannii. The following applies: Table 4A, different batches of cation-adjusted Muller-Hinton broth. On the procedure:
as §1, §2, §3, §4

The next assay concerns K. pneumoniae NCTC8172. The class given is cell-based, Klebsiella pneumoniae. Conditions: Table 4A, different batches of cation-adjusted Muller-Hinton broth. The procedure:
as §1, §2, §3, §4

The test system of the next assay is E. coli NCTC12900. The class given is cell-based, Escherichia coli. The following applies: Table 4A, different batches of cation-adjusted Muller-Hinton broth. The procedure: as §1, §2, §3, §4
Setting [2] is: Table 4A, different batches of cation-adjusted Muller-Hinton broth.
[3] abbreviates: P. aeruginosa AATCCRM 9027, Table 4A, different batches of cation-adjusted Muller-Hinton broth.

Consider `CC(C)C[C@@H]1NC(=O)[C@@H](Cc2ccccc2)NC(=O)[C@H](CCN)NC(=O)[C@@H](NC(=O)[C@H](CCN)NC(=O)[C@@H](NC(=O)CCCCCCCO)C(C)O)CCNC(=O)[C@H](C(C)O)NC(=O)[C@H](CCN)NC(=O)[C@H](CCN)NC1=O` (some centres unmarked) [Example 8, 8-Hydroxyoctanoyl Polymyxin B Nonapeptide, Sulphate Salt] (X6-[Thr(3ξ)][Dab][Dab][Dab][dF]L[Dab][Dab][Thr(3ξ)]; lactam 3-C), for which the MIC stood at 2 micrograms/mL against P. aeruginosa ATCC10145 (Table 4); 0.25 micrograms/mL in assay [1] (P. aeruginosa ATCCCRM-9027, Table 4); 0.5 micrograms/mL with P. aeruginosa ATCC27853 (Table 4); 16 micrograms/mL in the assay with A. baumannii NCTC7844 (Table 4); 0.5 micrograms/mL against E. coli ATCC700928 (Table 4); 2 micrograms/mL against E. coli ATCC25922 (Table 4). Also, the MIC with E. coli NCTC9001 (Table 4) was found to be 2 micrograms/mL; with K. pneumoniae NCTC7427 (Table 4), 1 micrograms/mL.
On to `CC(C)C[C@@H]1NC(=O)[C@@H](Cc2ccccc2)NC(=O)[C@H](CCN)NC(=O)[C@@H](NC(=O)[C@H](CCN)NC(=O)[C@@H](NC(=O)CCC(C)(C)N)C(C)O)CCNC(=O)[C@H](C(C)O)NC(=O)[C@H](CCN)NC(=O)[C@H](CCN)NC1=O` (some centres unmarked) [Example 28, 4-Amino-4-methyl pentanoyl polymyxin B nonapeptide] (X11-[Thr(3ξ)][Dab][Dab][Dab][dF]L[Dab][Dab][Thr(3ξ)]; lactam 3-C), for which the MIC in the assay on P. aeruginosa ATCC27853 (setting [2]) is listed as less than 0.06 micrograms/mL; in the assay on A. baumannii ATCC19606, 4 micrograms/mL; against E. coli ATCC25922 (setting [2]), 4 micrograms/mL; in the assay with K. pneumoniae ATCC 4352, 0.25 micrograms/mL.
For the compound `CC(C)C[C@@H]1NC(=O)[C@@H](Cc2ccccc2)NC(=O)[C@H](CCN)NC(=O)[C@@H](NC(=O)[C@H](CCN)NC(=O)[C@@H](NC(=O)CC[C@@H](N)C(C)C)C(C)O)CCNC(=O)[C@H](C(C)O)NC(=O)[C@H](CCN)NC(=O)[C@H](CCN)NC1=O` (stereo partly drawn) [Example 29, 4-(R)-Amino-5-methylhexanoyl polymyxin B nonapeptide] (X5-[Thr(3ξ)][Dab][Dab][Dab][dF]L[Dab][Dab][Thr(3ξ)]; lactam 3-C), the MIC against P. aeruginosa ATCC10145 (setting [2]) is 0.5 micrograms/mL; in [1] (setting [3]), 0.5 micrograms/mL; in the assay with P. aeruginosa ATCC 9721 it was 0.25 micrograms/mL; against P. aeruginosa ATCC27853 (setting [2]) it was 0.125 micrograms/mL; against A. baumannii ATCCBAA-747, 1 micrograms/mL; in the assay with A. baumannii ATCC19606, 2 micrograms/mL. Moreover, the MIC against A. baumannii NCTC7844 (setting [2]) is 2 micrograms/mL; with A. baumannii NCTC13423, 0.5 micrograms/mL; against E. coli ATCC700928 (setting [2]), 2 micrograms/mL; with E. coli ATCC25922 (setting [2]), 8 micrograms/mL; in the assay on K. pneumoniae ATCC 4352 it was 0.5 micrograms/mL; in the assay on K. pneumoniae NCTC7427 (setting [2]), 0.5 micrograms/mL. This compound also showed an MIC against K. pneumoniae NCTC8172 of more than 32 micrograms/mL.
Take `CC(C)C[C@@H]1NC(=O)[C@@H](Cc2ccccc2)NC(=O)[C@H](CCN)NC(=O)[C@@H](NC(=O)[C@H](CCN)NC(=O)[C@@H](NC(=O)CC[C@@H]2CCCN2)C(C)O)CCNC(=O)[C@H](C(C)O)NC(=O)[C@H](CCN)NC(=O)[C@H](CCN)NC1=O` (stereo partly drawn) [Example 30, 3-(S)-(1-pyrrolidin-2-yl)-propionyl polymyxin B nonapeptide] (X10-[Thr(3ξ)][Dab][Dab][Dab][dF]L[Dab][Dab][Thr(3ξ)]; lactam 3-C): the MIC against P. aeruginosa ATCC27853 (setting [2]) worked out at 0.125 micrograms/mL; in the assay on A. baumannii ATCC19606, 8 micrograms/mL; with E. coli ATCC25922 (setting [2]) it was 16 micrograms/mL; in the assay with K. pneumoniae ATCC 4352 it was 1 micrograms/mL.
In the same order, the values of `CC(C)C[C@@H]1NC(=O)[C@@H](Cc2ccccc2)NC(=O)[C@H](CCN)NC(=O)[C@@H](NC(=O)[C@H](CCN)NC(=O)[C@@H](NC(=O)CC[C@H](C)N)C(C)O)CCNC(=O)[C@H](C(C)O)NC(=O)[C@H](CCN)NC(=O)[C@H](CCN)NC1=O` (stereo partly drawn) [Example 31, 4-(S)-aminopentanoyl polymyxin B nonapeptide] ({GABA(4S-Me)}-[Thr(3ξ)][Dab][Dab][Dab][dF]L[Dab][Dab][Thr(3ξ)]; lactam 3-C) are 0.25 micrograms/mL, 8 micrograms/mL, more than 32 micrograms/mL and 0.5 micrograms/mL.
For `CC(C)C[C@@H]1NC(=O)[C@@H](Cc2ccccc2)NC(=O)[C@H](CCN)NC(=O)[C@@H](NC(=O)[C@H](CCN)NC(=O)[C@@H](NC(=O)[C@H]2CC[C@H](O)CC2)C(C)O)CCNC(=O)[C@H](C(C)O)NC(=O)[C@H](CCN)NC(=O)[C@H](CCN)NC1=O` (stereo partly drawn) [Example 32, trans-4-hydroxycyclohexanecarbonyl polymyxin B nonapeptide] (X8-[Thr(3ξ)][Dab][Dab][Dab][dF]L[Dab][Dab][Thr(3ξ)]; lactam 3-C) the same measures were 0.125 micrograms/mL, 16 micrograms/mL, 8 micrograms/mL and 4 micrograms/mL.
Consider `CC(C)C[C@@H]1NC(=O)[C@@H](Cc2ccccc2)NC(=O)[C@H](CCN)NC(=O)[C@@H](NC(=O)[C@H](CCN)NC(=O)[C@@H](NC(=O)CCO)C(C)O)CCNC(=O)[C@H](C(C)O)NC(=O)[C@H](CCN)NC(=O)[C@H](CCN)NC1=O` (some centres unmarked) [Example 33, 3-Hydroxypropanoyl polymyxin B nonapeptide] ({Propanoyl(3-OH)}-[Thr(3ξ)][Dab][Dab][Dab][dF]L[Dab][Dab][Thr(3ξ)]; lactam 3-C), for which the MIC against P. aeruginosa ATCC27853 (setting [2]) is on record as 0.5 micrograms/mL; in the assay on A. baumannii ATCC19606, more than 32 micrograms/mL; in the assay with E. coli ATCC25922 (setting [2]), more than 32 micrograms/mL; in the assay with K. pneumoniae ATCC 4352, 4 micrograms/mL.
For the compound `CC(C)C[C@@H]1NC(=O)[C@@H](Cc2ccccc2)NC(=O)[C@H](CCN)NC(=O)[C@@H](NC(=O)[C@H](CCN)NC(=O)[C@@H](NC(=O)C(O)C2CCCCC2)C(C)O)CCNC(=O)[C@H](C(C)O)NC(=O)[C@H](CCN)NC(=O)[C@H](CCN)NC1=O` (stereo partly drawn) [Example 34, 2-(R,S)-(2-Hydroxy-2-cyclohexyl) ethanoyl polymyxin B nonapeptide] (ξHexahydromandeloyl-[Thr(3ξ)][Dab][Dab][Dab][dF]L[Dab][Dab][Thr(3ξ)]; lactam 3-C), the MIC turned out to be 0.5 micrograms/mL against P. aeruginosa ATCC10145 (setting [2]); 0.5 micrograms/mL in [1] (setting [3]); 0.25 micrograms/mL in the assay on P. aeruginosa ATCC 9721; 0.125 micrograms/mL in the assay on P. aeruginosa ATCC27853 (setting [2]); 1 micrograms/mL in the assay with A. baumannii ATCCBAA-747; 1 micrograms/mL in the assay with A. baumannii ATCC19606. The MIC against A. baumannii NCTC7844 (setting [2]) is listed as 2 micrograms/mL; against A. baumannii NCTC13423, 0.25 micrograms/mL; against E. coli ATCC25922 (setting [2]), 0.5 micrograms/mL; with E. coli NCTC12900, 8 micrograms/mL; in the assay with E. coli NCTC9001 (setting [2]) it was 8 micrograms/mL; with K. pneumoniae ATCC 4352 it was 1 micrograms/mL. Besides, the figures for the MIC in the assay with K. pneumoniae NCTC7427 (setting [2]) and in the assay with K. pneumoniae NCTC8172 were 0.5 micrograms/mL and more than 32 micrograms/mL, respectively.
For the compound `CCCCCCCC(=O)N[C@H](C(=O)N[C@H](CO)C(=O)N[C@H]1CCNC(=O)[C@H]([C@@H](C)O)NC(=O)[C@H](CCN)NC(=O)[C@H](CCN)NC(=O)[C@H](CC(C)C)NC(=O)[C@@H](Cc2ccccc2)NC(=O)[C@H](CCN)NC1=O)[C@@H](C)O` [NAB739, reference compound] (Octanoyl-T[dS][Dab][Dab][dF]L[Dab][Dab]T; lactam 3-C; N-terminus assumed), the MIC came out at 1 micrograms/mL against P. aeruginosa ATCC27853 (setting [2]), 1 micrograms/mL in the assay with A. baumannii ATCC19606, 2 micrograms/mL in the assay with E. coli ATCC25922 (setting [2]) and 2 micrograms/mL against K. pneumoniae ATCC 4352.
